Measurements published in publication PMC4099323, “Inhibition of Catalase by Tea Catechins in Free and Cellular State: A Biophysical Approach” (PLoS ONE, 2014).

Experiments:
[1] = biological target: T1, Catalase (from bovine liver) (Bos taurus, UniProt P00432); experiment: Fluorimetric titration: quenching of catalase fluorescence by catechins; type: binding
T1 construct: Catalase (from bovine liver); purchased Sigma-Aldrich, St. Louis, MO, USA; host or cells: bovine liver
T1 sequence (P00432 2-527 limits assumed): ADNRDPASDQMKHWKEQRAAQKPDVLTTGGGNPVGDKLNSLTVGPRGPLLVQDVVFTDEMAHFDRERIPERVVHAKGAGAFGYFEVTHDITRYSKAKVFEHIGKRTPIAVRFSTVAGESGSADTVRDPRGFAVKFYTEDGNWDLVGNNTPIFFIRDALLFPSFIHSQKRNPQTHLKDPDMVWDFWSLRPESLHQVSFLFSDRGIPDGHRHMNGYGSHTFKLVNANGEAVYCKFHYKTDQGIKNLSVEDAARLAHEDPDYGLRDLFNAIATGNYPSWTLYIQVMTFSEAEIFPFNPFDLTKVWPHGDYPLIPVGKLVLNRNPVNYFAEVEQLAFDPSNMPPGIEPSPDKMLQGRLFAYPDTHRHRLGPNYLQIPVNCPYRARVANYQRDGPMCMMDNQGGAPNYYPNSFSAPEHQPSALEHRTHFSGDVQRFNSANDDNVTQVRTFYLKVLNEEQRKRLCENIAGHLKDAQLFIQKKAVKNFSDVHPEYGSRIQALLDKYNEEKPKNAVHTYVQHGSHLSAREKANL
Protocol: Fluorescence spectra were recorded using a Perkin Elmer fluorescence spectrophotometer (LS-55) equipped with 150 W Xenon flash lamp and using fluorescence-free quartz cell of 1 cm path length. The widths of excitation and emission slits were set to 5 nm, and scan speed (100 nm/min), excitation voltage were kept constant for each data set. Quantitative analysis of the potential interaction between catechins and catalase was performed by the fluorimetric titration technique. Briefly, solution of catalase (5×10^−7 M, as calculated using molar extinction coefficient of 3.24×10^5 M^−1 s^−1 at 405 nm for catalase) in 50 mM phosphate buffer of pH 7.4 was titrated in cuvette by successive additions of individual catechin solution aliquots from a stock of 5×10^−7 M. Fluorescence emission spectra were recorded in the wavelength range of 290–450 nm upon excitation at 280 nm when catalase samples were titrated with catechins. All experiments were carried out at room temperature. Fluorescence intensity was measured at 340 nm of protein emission spectra. Fluorescence spectra of individual catechins in buffer were recorded as blanks under the same experimental conditions and subtracted from the corresponding sample to correct the fluorescence background.
The binding constants and the number of binding sites involved were calculated according to the relation: log (F0–F)/F = log K+n log [Q], where K is the binding constant and n is the number of binding sites, F0 is the fluorescence intensity of free catalase, F is the consecutive fluorescence on addition of catechins, and [Q] is the concentration of the quencher (here catechins). A plot of log (F0– F)/F and log [Q] was used to determine the values of K and n from the intercept and the slope respectively (Figure 3 A–D).

[2] = biological target: T1, Catalase (from bovine liver); experiment: Circular dichroism: catechin-induced conformational change in catalase; conditions: catalase 1 µM, ligands 3 µM each, 25°C
Protocol: All the CD experiments were carried out on a Jasco-815 automatic spectropolarimeter (Jasco International Co., Ltd. Hachioji, Japan) equipped with a peltier cuvette holder and temperature controller PFD425 L/15. The catalase concentration and path length of the cuvette used were 1 µM and 0.1 cm, respectively. The instrument parameters were set at scanning speed of 50 nm/min, bandwidth of 1.0 nm and sensitivity of 100 milli degree. The molar ellipticity values are expressed in terms of mean residue molar ellipticity, in units of deg. cm^2 dmol^−1.
CD allows investigation of the conformational changes that occur in a protein upon ligand binding. The CD spectra of catalase at pH 7.4 in the absence and in the presence of EGC, EC, ECG, EGCG, and 3-AT at 25°C are represented in Figure 5 (a – f). […] The negative band at 208 and 220 nm decreased in intensity with the addition of various catechins, which is indicative of the loss of α-helicity upon interaction. […] From the CD spectra, the effect of catechins on the secondary structure of catalase is in the following order: 3-AT>EGCG>ECG>EC>EGC.

[3] = tested on: K562 cells; experiment: MTT cell viability assay; type: cell-based; conditions: Homo sapiens
Protocol: Cell viability of K562 cells was quantified by MTT based colorimetric assay as described elsewhere. Briefly, cells were rinsed with PBS and 0.5 mg/ml MTT was added into each sample. The mixture was incubated at 37°C for an additional 3 h. At the end of incubation period, the medium containing MTT was removed and the pellet was dissolved in 200 µl DMSO. Absorbance was measured at a wavelength of 570 nm. Cell viability was expressed as a percentage of the control culture.
The concentration (IC50) at which the K562 cell survivability was reduced to 50% was calculated for EGCG and 3-AT by MTT based cell viability assay.

[4] = tested on: K562 cells; experiment: Intracellular ROS by DCFDA fluorescent probe; type: cell-based, human; conditions: 24 h, basal 255.09±3.69 AU
Protocol: Intracellular ROS were estimated by using the DCFDA fluorescent probe. Intracellular H2O2 and other peroxides can oxidize DCFDA to highly fluorescent compound dichlorofluorescein (DCF). K562 cells were incubated at 37°C in absence and presence of EGCG (12.5 – 100 µM) for 24 h. Cells were again incubated with 10 µM DCFDA at 37°C for an additional 30 min, and then washed twice with PBS. Finally the fluorescence intensity of DCF was measured with an excitation wavelength of 485 nm and emission wavelength of 530 nm.

[5] = biological target: DNA methyltransferase; conditions: KYSE 510 human esophageal cancer cells; cited from earlier work
[6] = biological target: human dihydrofolate reductase (DHFR); set-up: method as in PMID 20054477; conditions: fluorescence quenching; cited from earlier work
[7] = tested on: CDK4; conditions: MCF7 breast cancer cell lines, 30 µM; cited from earlier work

## O=C(O[C@@H]1Cc2c(O)cc(O)cc2O[C@@H]1c1cc(O)c(O)c(O)c1)c1cc(O)c(O)c(O)c1 [EGCG, (−)-epigallocatechin gallate]
[1]; double logarithmic plot, 25°C
  number of binding sites n: single binding site
[1]; double logarithmic plot, 25°C, pH 7.4, λex 280 nm
  binding constant K with catalase (fluorimetric): 2.27e+06 M⁻¹
[1]; from the fluorimetric binding constant, read-out: K d to catalase
  Kd: 0.44 µM
[2]
  order of effect on the secondary structure of catalase (loss of α-helicity): 3-AT>EGCG>ECG>EC>EGC
[3]
  IC50: 54.5 µM
[3]; conversion of the µM value
  IC50: 27 µg/mL
[4]; 12.5 µM
  intracellular ROS: 298.01±4.89 AU
[4]; 25 µM
  intracellular ROS: 320.83±4.03 AU
[4]; 50 µM
  intracellular ROS: 354.07±4.66 AU
[4]; 100 µM
  intracellular ROS: 442.90±7.43 AU
[5]
  Ki: 7 µM
[6]
  Kd: 0.9 µM
[7]
  inhibition of CDK4: inhibited
